Experimental data from ChEMBL document CHEMBL5625251, “Anti-influenza virus activities and mechanism of antrafenine analogs” (Eur J Med Chem, 2023).
The source made the active and inactive calls. No cut-off for these calls is given here.

Legend:
MDCK = test: Cytotoxicity against MDCK cells assessed as reduction in cell viability at 12.5 uM incubated for 48 hrs by MTT assay; format: toxicity, cell-based, Canis lupus familiaris; conditions: dog
Influenza A virus [1] = test: Antiviral activity against Influenza A virus A/WSN/33(H1N1) infected in MDCK cells assessed as inhibition of viral growth at 6.25 uM pre-infected for 1 hr followed by compound addition and measured 24 hrs post infection by plaque assay relative to control; format: functional; conditions: time 23 hrs
Influenza A virus [2] = test: Antiviral activity against Influenza A virus A/WSN/33(H1N1) infected in MDCK cells assessed as inhibition of viral growth 12.5 uM pre-infected for 1 hr followed by compound addition and measured 24 hrs post infection by plaque assay relative to control; format: functional; conditions: for inhibition at 12.5 µM: time 23 hrs
[3] = Cytotoxicity against MDCK cells assessed as reduction in cell viability incubated for 48 hrs by MTT assay; format: toxicity, cell-based, Canis lupus familiaris; conditions: dog
Influenza A virus [4] = test: Antiviral activity against Influenza A virus A/WSN/33(H1N1) infected in MDCK cells assessed as inhibition of viral growth at 100 uM pre-infected for 1 hr followed by compound addition and measured 24 hrs post infection by plaque assay relative to control; format: functional; conditions: time 23 hrs
[5] = molecular target: Polymerase acidic protein (Influenza A virus (A/Puerto Rico/8/1934(H1N1)), UniProt P03433); test: Binding affinity to C-terminal Influenza A virus Polymerase acidic protein assessed as dissociation constant by MST assay
Influenza A virus [6] = test: Antiviral activity against Influenza A virus A/WSN/33(H1N1) infected in MDCK cells assessed as reduction in virus-induced cytopathic effect at 100 uM pre-infected with cells for 1 hrs followed by compound addition and measured after 2 days by MTT assay; format: functional, organism-based; conditions: time 2.0 day
Influenza A virus [7] = test: Antiviral activity against Influenza A virus A/WSN/33(H1N1) infected in MDCK cells MOI 0.1 assessed as reduction in viral titre at 100 uM pre-infected with cells for 6 hrs followed by compound addition and measured after 6 to 8 hrs post infection by time of addition assay; format: functional, organism-based
Influenza A virus [8] = test: Antiviral activity against Influenza A virus A/WSN/33(H1N1) infected in MDCK cells MOI 0.1 assessed as reduction in viral titre at 100 uM pre-infected with cells for 6 hrs followed by compound addition and measured after 4 to 6 hrs post infection by time of addition assay; format: functional, organism-based
Influenza A virus [9] = test: Antiviral activity against Influenza A virus A/HK/1/68 infected in MDCK cells MOI 0.01 assessed as inhibition of viral growth pre-infected for 1 hr followed by compound addition and measured 24 hrs post infection by plaque assay; format: functional, organism-based; conditions: A/HK/1/68, MDCK
Influenza A virus [10] = test: Antiviral activity against Influenza A virus A/PR/8/34 infected in MDCK cells MOI 0.01 assessed as inhibition of viral growth pre-infected for 1 hr followed by compound addition and measured 24 hrs post infection by plaque assay; format: functional, organism-based; conditions: A/PR/8/34, MDCK
[11] = Selectivity index, ratio of CC50 for cytotoxicity against African green monkey Vero cells assessed as reduction in cell viability to IC50 for inhibition of Influenza A virus A/WSN/33(H1N1) Ribonucleoprotein transfected in Vero cells; format: toxicity, cell-based; conditions: read-out: Ratio CC50/IC50
Influenza A virus [12] = test: Antiviral activity against Influenza A virus A/WSN/33(H1N1) infected in MDCK cells MOI 0.1 assessed as reduction in viral titre at 100 uM pre-infected with cells for 6 hrs followed by compound addition and measured after 2 to 4 hrs post infection by time of addition assay; format: functional, organism-based
Influenza A virus [13] = test: Antiviral activity against Influenza A virus A/WSN/33(H1N1) infected in MDCK cells assessed as inhibition of viral growth pre-infected for 1 hr followed by compound addition and measured 24 hrs post infection by plaque assay; format: functional, organism-based
[14] = Cytotoxicity against African green monkey Vero cells assessed as reduction in cell viability incubated for 48 hrs by MTT assay; format: toxicity, cell-based; conditions: chlorocebus sabaeus
[15] = Selectivity index, ratio of CC50 for cytotoxicity against MDCK cells assessed as reduction in cell viability to IC50 for antiviral activity against Influenza A virus B/Florida/4/06 infected in MDCK cells MOI 0.01 assessed as inhibition of viral growth; format: toxicity, cell-based; conditions: dog, read-out: Ratio CC50/IC50
Influenza A virus [16] = test: Antiviral activity against Influenza A virus A/WSN/33(H1N1) infected in chicken erythrocytes assessed as reduction in neuraminidase level incubated for 2 hrs; format: functional, organism-based; conditions: Erythrocyte
[17] = Selectivity index, ratio of CC50 for cytotoxicity against MDCK cells assessed as reduction in cell viability to IC50 for antiviral activity against Influenza A virus A/WSN/33(H1N1) infected in MDCK cells assessed as inhibition of viral growth; format: toxicity, cell-based; conditions: dog, read-out: Ratio CC50/IC50
[18] = Selectivity index, ratio of CC50 for cytotoxicity against MDCK cells assessed as reduction in cell viability to IC50 for antiviral activity against Influenza A virus A/HK/1/68 infected in MDCK cells MOI 0.01 assessed as inhibition of viral growth; format: toxicity, cell-based; conditions: dog, read-out: Ratio CC50/IC50
[19] = Inhibition of Influenza A virus A/WSN/33(H1N1) Ribonucleoprotein transfected in Vero cells incubated for 48 hrs by spectrophotometer analysis; format: cell-based
Nucleoprotein = Nucleoprotein (Influenza A virus (strain A/Wilson-Smith/1933 H1N1), UniProt P15682); test: Binding affinity to Influenza A virus Nucleoprotein assessed as dissociation constant by MST assay
Influenza A virus [20] = test: Antiviral activity against Influenza A virus B/Florida/4/06 infected in MDCK cells MOI 0.01 assessed as inhibition of viral growth pre-infected for 1 hr followed by compound addition and measured 24 hrs post infection by plaque assay; format: functional, organism-based; conditions: B/Florida/4/06, MDCK
Influenza A virus [21] = test: Antiviral activity against Influenza A virus A/WSN/33(H1N1) infected in chicken erythrocytes assessed as reduction in Haemagglutinin level preincubated for 30 mins followed by viral infection and measured after 40 mins; format: functional, organism-based; conditions: Erythrocyte, time 70.0 min
[22] = Selectivity index, ratio of CC50 for cytotoxicity against MDCK cells assessed as reduction in cell viability to IC50 for antiviral activity against Influenza A virus A/PR/8/34 infected in MDCK cells MOI 0.01 assessed as inhibition of viral growth; format: toxicity, cell-based; conditions: dog, read-out: Ratio CC50/IC50
Influenza A virus [23] = test: Antiviral activity against Influenza A virus A/WSN/33(H1N1) infected in MDCK cells MOI 0.1 assessed as reduction in viral titre at 100 uM pre-infected with cells for 6 hrs followed by compound addition and measured after 2 hrs post infection by time of addition assay; format: functional, organism-based
Influenza A virus [24] = test: Antiviral activity against Influenza A virus A/WSN/33(H1N1) infected in MDCK cells assessed as inhibition of viral growth at 50 uM pre-infected for 1 hr followed by compound addition and measured 24 hrs post infection by plaque assay relative to control; format: functional; conditions: time 23 hrs

Chain of Nucleoprotein (P15682 whole entry): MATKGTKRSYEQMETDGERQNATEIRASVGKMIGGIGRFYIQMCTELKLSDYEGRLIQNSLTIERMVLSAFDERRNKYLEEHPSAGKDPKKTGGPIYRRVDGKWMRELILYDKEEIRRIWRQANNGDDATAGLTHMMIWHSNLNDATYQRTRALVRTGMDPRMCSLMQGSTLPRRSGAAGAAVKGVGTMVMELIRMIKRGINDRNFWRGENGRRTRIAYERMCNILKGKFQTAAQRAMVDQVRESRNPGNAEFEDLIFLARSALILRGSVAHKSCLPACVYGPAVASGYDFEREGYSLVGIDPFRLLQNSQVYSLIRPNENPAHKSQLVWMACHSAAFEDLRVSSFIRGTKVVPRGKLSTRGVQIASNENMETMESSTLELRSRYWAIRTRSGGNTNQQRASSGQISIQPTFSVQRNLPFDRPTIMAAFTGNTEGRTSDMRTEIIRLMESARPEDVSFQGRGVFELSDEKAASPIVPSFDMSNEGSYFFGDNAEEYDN

Cc1ccccc1N1CCN(CCNC(=O)c2ccccc2Nc2ccnc3ccc(Cl)cc23)CC1
Activity (MDCK): Toxic

O=C(Nc1cccc([N+](=O)[O-])c1)c1ccccc1Nc1ccnc2ccc(Cl)cc12
inhibition at 6.25 µM (Influenza A virus [1]): 21.4%
Activity (MDCK): Toxic

O=C(NCC(=O)N1CCN(c2cccc(Cl)c2Cl)CC1)c1ccccc1Nc1ccnc2ccc(Cl)cc12
inhibition at 12.5 µM (Influenza A virus [2]): 24%
CC50 at 48 h [3]: > 50 µM

O=C(NCC(=O)N1CCOCC1)c1ccccc1Nc1ccnc2cc(C(F)(F)F)ccc12
inhibition at 100 µM (Influenza A virus [4]): 60.6%
CC50 at 48 h [3]: > 100 µM

CNC(=O)c1ccccc1Nc1ccnc2cc(C(F)(F)F)ccc12
inhibition at 100 µM (Influenza A virus [4]): 20%
CC50 at 48 h [3]: > 100 µM

CC(C)NC(=O)c1ccccc1Nc1ccnc2cc(C(F)(F)F)ccc12
CC50 at 48 h [3]: > 100 µM

Cc1ccc(N2CCN(CCNC(=O)c3ccccc3Nc3ccnc4cc(C(F)(F)F)ccc34)CC2)c(C)c1
CC50 at 48 h [3]: > 100 µM

O=C(Nc1ccc(Br)cc1)c1ccccc1Nc1ccnc2cc(C(F)(F)F)ccc12
inhibition at 6.25 µM (Influenza A virus [1]): 74.5%
Activity (MDCK): Toxic

O=C(NCCN1CCN(c2ccccc2OC(F)(F)F)CC1)c1ccccc1Nc1ccnc2cc(C(F)(F)F)ccc12
CC50 at 48 h [3]: > 100 µM

O=C(CNC(=O)c1ccccc1Nc1ccnc2ccc(Cl)cc12)NC1CCCCC1
inhibition at 12.5 µM (Influenza A virus [2]): 44.4%
CC50 at 48 h [3]: 21.6 µM

O=C(O)c1ccccc1Nc1ccnc2cc(C(F)(F)F)ccc12
Kd [5]: 8.36 µM
Activity (Influenza A virus [6]): Active
Activity (Influenza A virus [7]): inactive
Activity (Influenza A virus [8]): Active
IC50 (Influenza A virus [9]): 27.8 µM
IC50 (Influenza A virus [10]): 11.3 µM
selectivity ratio [11]: > 10
Activity (Influenza A virus [12]): Active
IC50 (Influenza A virus [13]): 6.73 µM
CC50 at 48 h [14]: > 200 µM
inhibition at 100 µM (Influenza A virus [4]): 97.3%
selectivity ratio [15]: > 4
Activity (Influenza A virus [16]): inactive
selectivity ratio [17]: > 15
selectivity ratio [18]: > 4
IC50 [19]: 19.2 µM
Kd (Nucleoprotein): 20.4 µM
CC50 at 48 h [3]: > 100 µM
IC50 (Influenza A virus [20]): 22.3 µM
Activity (Influenza A virus [21]): inactive
selectivity ratio [22]: > 9
Activity (Influenza A virus [23]): Active

O=C(NCCN1CCN(c2ccccc2)CC1)c1ccccc1Nc1ccnc2ccc(Cl)cc12
Activity (Influenza A virus [6]): Active
inhibition (Influenza A virus [2]; time 23.0 hrs): inactive
CC50 at 48 h [3]: > 100 µM

O=C(NC12CC3CC(CC(C3)C1)C2)c1ccccc1Nc1ccnc2cc(C(F)(F)F)ccc12
Activity (MDCK): Toxic

O=C(CNC(=O)c1ccccc1Nc1ccnc2cc(C(F)(F)F)ccc12)NC1CCCCC1
CC50 at 48 h [3]: > 100 µM
inhibition at 50 µM (Influenza A virus [24]): 69.3%

O=C(CNC(=O)c1ccccc1Nc1ccnc2cc(C(F)(F)F)ccc12)NCCCN1CCOCC1
CC50 at 48 h [3]: > 50 µM
inhibition at 50 µM (Influenza A virus [24]): 94.9%

O=C(NCCCO)c1ccccc1Nc1ccnc2cc(C(F)(F)F)ccc12
inhibition at 100 µM (Influenza A virus [4]): 62.6%
CC50 at 48 h [3]: > 100 µM

CN(C)CCNC(=O)c1ccccc1Nc1ccnc2ccc(Cl)cc12
CC50 at 48 h [3]: 19.9 µM

O=C(c1ccccc1Nc1ccnc2cc(C(F)(F)F)ccc12)N1CCOCC1
CC50 at 48 h [3]: > 100 µM

O=C(NC1CCCCC1)c1ccccc1Nc1ccnc2cc(C(F)(F)F)ccc12
inhibition at 12.5 µM (Influenza A virus [2]): 41.3%
CC50 at 48 h [3]: > 50 µM

O=C(NCCCN1CCOCC1)c1ccccc1Nc1ccnc2cc(C(F)(F)F)ccc12
inhibition at 100 µM (Influenza A virus [4]): 99.9%
CC50 at 48 h [3]: > 100 µM

CCC(CC)O[C@@H]1C=C(C(=O)O)C[C@H](N)[C@H]1NC(C)=O [OSELTAMIVIR CARBOXYLATE]
IC50 (Influenza A virus [13]): 9e-06 µM
